Data taken from paper PMC7739374 (ACS chemical biology, 2020).
Where a SMILES comes first, the peptide text is derived from it. [ ]: non-standard residue; d: D form. β3hI = CC[C@H](C)[C@H](N)CC(=O)O; β3hE = N[C@@H](CCC(=O)O)CC(=O)O; β3hA = C[C@H](N)CC(=O)O

Legend:
[1] = test system: Ras activation and ERK signaling; conditions: cited from earlier work
recombinant H-Ras = conditions: within range of full-length Sos; cited from earlier work
[2] = Tryptic digestion, HPLC-based proteolytic stability assay; format: in vitro ADME
proteinase K = format: in vitro ADME
trypsin = experiment: Tryptic digestion, HPLC-based proteolytic stability assay; format: in vitro ADME
[3] = test system: H358 (K-Ras G12C) lung cancer cells; experiment: MTT cell viability; format: cell-based; conditions: 72 hours

half-life ([2]; trypsin) [h]	fold increase in half-life with proteinase K (proteinase K) [fold]	fold increase in half-life, tryptic digestion (trypsin)	half-life ([2]; isolated enzyme trypsin) [h]	SMILES	modulation of Ras activation and ERK signaling [1]	affinity for recombinant H-Ras (recombinant H-Ras)	effect on cell viability, H358 [3]
3.1				CC[C@H](C)[C@H](NC(=O)CN1C/C=C/CCC(=O)N[C@@H](Cc2ccccc2)C(=O)N[C@@H](CCC(=O)O)C1=O)C(=O)N[C@@H](Cc1ccc(O)cc1)C(=O)N[C@@H](CCCNC(=N)N)C(=O)N[C@@H](CC(C)C)C(=O)N[C@@H](CCC(=O)O)C(=O)N[C@@H](CC(C)C)C(=O)N[C@@H](CC(C)C)C(=O)N[C@@H](CCCCN)C(=O)N[C@@H](C)C(=O)N[C@@H](CCC(=O)O)C(=O)N[C@@H](CCC(=O)O)C(=O)N[C@@H](C)C(=O)N[C@@H](CC(N)=O)C(N)=O [HBSSOS]	concentration-dependent manner	micromolar affinity	
	360	~ 6 fold	17.6	CC[C@H](C)[C@@H](CC(=O)N[C@@H](Cc1ccc(O)cc1)C(=O)N[C@@H](CCCNC(=N)N)C(=O)N[C@@H](CC(C)C)C(=O)N[C@@H](CCC(=O)O)CC(=O)N[C@@H](CC(C)C)C(=O)N[C@@H](CC(C)C)C(=O)N[C@@H](CCCCN)C(=O)N[C@@H](C)CC(=O)N[C@@H](CCC(=O)O)C(=O)N[C@@H](CCC(=O)O)C(=O)N[C@@H](C)C(=O)N[C@@H](CC(N)=O)C(N)=O)NC(=O)CN1C/C=C/CCCC(=O)N[C@@H](Cc2ccccc2)C(=O)N[C@@H](CCC(=O)O)C1=O [α3βHBSSOS]			impacts viability of H358 cells at higher concentrations
		8.5 fold	13.6	CC[C@H](C)[C@@H](CC(=O)N[C@@H](Cc1ccc(O)cc1)C(=O)N[C@@H](CCCNC(=N)N)C(=O)N[C@@H](CC(C)C)C(=O)N[C@@H](CCC(=O)O)CC(=O)N[C@@H](CC(C)C)C(=O)N[C@@H](CC(C)C)C(=O)N[C@@H](CCCCN)C(=O)N[C@@H](C)CC(=O)N[C@@H](CCC(=O)O)C(=O)N[C@@H](CCC(=O)O)C(=O)N[C@@H](C)C(=O)N[C@@H](CC(N)=O)C(N)=O)NC(=O)CNC(=O)[C@H](CCC(=O)O)NC(=O)[C@H](Cc1ccccc1)NC(C)=O [α3βUNCSOS] (Ac-FEG[β3hI]YRL[β3hE]LLK[β3hA]EEAN-NH2; N-terminus and C-terminus assumed)			
1.6				CC[C@H](C)[C@H](NC(=O)CNC(=O)[C@H](CCC(=O)O)NC(=O)[C@H](Cc1ccccc1)NC(C)=O)C(=O)N[C@@H](Cc1ccc(O)cc1)C(=O)N[C@@H](CCCNC(=N)N)C(=O)N[C@@H](CC(C)C)C(=O)N[C@@H](CCC(=O)O)C(=O)N[C@@H](CC(C)C)C(=O)N[C@@H](CC(C)C)C(=O)N[C@@H](CCCCN)C(=O)N[C@@H](C)C(=O)N[C@@H](CCC(=O)O)C(=O)N[C@@H](CCC(=O)O)C(=O)N[C@@H](C)C(=O)N[C@@H](CC(N)=O)C(N)=O [αUNCSOS] (Ac-FEGIYRLELLKAEEAN-NH2; N-terminus and C-terminus assumed)			
